Assay results published in patent US20110053773A1, “METHODS OF IMPROVING NUTRITIONAL VALUE OF PLANTS” (UNIVERSITY OF TENNESSEE RESEARCH FOUNDATION, priority 2009, published 2011).

Key:
[1] = tested on: kale 'Red Russian'; experiment: Visual injury of kale after insecticide, fungicide, PGRs, safeners (Example 4)
Procedure: (§1) Greenhouse and laboratory studies were conducted to ascertain the tolerance and nutritional quality differences following postemergence applications of the insecticide chlorpyrifos, the fungicide chlorothalonil, the PGRs mepiquat-chloride and paclobutrazol, and the safeners napthalic anhydride and isoxadifen-ethyl on kale ‘Red Russian’ and basil ‘Genovese’. Visual injury was rated based on general phytotoxicity, chlorosis, and visual stunting and each measurement was based on a percent scale from 0 to 100 where 0 equals no visual response and 100 equals complete plant death. Kale and basil were both harvested approximately 4 weeks after treatments and plants were pooled over replicates for content analysis of crude protein, crude amino acid content, acid detergent fiber, neutral detergent fiber, total fatty acids, and/or key mineral content (including Na, Ca, P, Mg, K, Fe, Mn, Zn, and Cu). In addition, the amounts of key individual amino acids (aspartic acid, threonine, glutamic acid, proline, glycine, cysteine, valine, leucine, isoleucine, methionine, and lysine) and composite classifications of fatty acid (saturated fatty acids, monounsaturated fatty acids, polyunsaturated fatty acids) were also analyzed from these sub-samples for kale (Tables 10-14).

[2] = tested on: basil 'Genovese'; experiment: Visual injury of basil after insecticide, fungicide, PGRs, safeners (Example 4)
Procedure: as §1

[3] = tested on: kale 'Red Russian'; experiment: Content analysis of kale: protein, amino acids, fiber, fatty acids, minerals (Example 4, Tables 12-14); type: in vivo; details: 28 DA-A; for Alanine, Percent Increase over the Untreated Check (on a % dry matter basis) / Aspartic acid, Percent Increase over the Untreated Check (on a % dry matter basis) / Cysteine, Percent Increase over the Untreated Check (on a % dry matter basis) / Glutamic acid, Percent Increase over the Untreated Check (on a % dry matter basis) / Glycine, Percent Increase over the Untreated Check (on a % dry matter basis) / Iso-leucine, Percent Increase over the Untreated Check (on a % dry matter basis) / Leucine, Percent Increase over the Untreated Check (on a % dry matter basis) / Lysine, Percent Increase over the Untreated Check (on a % dry matter basis) / Methionine, Percent Increase over the Untreated Check (on a % dry matter basis) / Proline, Percent Increase over the Untreated Check (on a % dry matter basis) / Threonine, Percent Increase over the Untreated Check (on a % dry matter basis) / Total Amino acids, Percent Increase over the Untreated Check (on a % dry matter basis) / Total Protein, Percent Increase over the Untreated Check (on a % dry matter basis) / Valine, Percent Increase over the Untreated Check (on a % dry matter basis): chlorothalonil ###
Procedure: as §1

[4] = tested on: basil 'Genovese'; experiment: Content analysis of basil: protein, minerals (Example 4, Tables 10-11); type: in vivo; details: 28 DA-A, rates g ai/ha: chlropyrifos 1120, chlorothalonil 2630, paclobutrazol 3.23, mepiquat-chloride 12.3, Isoxadifen 8, Napthalic anhydride 264, + NIS 0.25 % v/v
Method in brief: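 Plants were harvested about 4 weeks post-treatment and pooled across replicates to analyse protein, amino acids, fiber, fatty acids and minerals (Na, Ca, P, Mg, K, Fe, Mn, Zn, Cu). Treatments were postemergence insecticide, fungicide, PGRs and safeners. Visual injury scored 0–100% (phytotoxicity, chlorosis, stunting).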

[5] = tested on: basil ‘Genovese’; experiment: Yield, fresh weight of basil after insecticide, fungicide, PGRs and safeners (Example 4, Table 10); type: in vivo; details: DA-A, check 31.8
Procedure: as §1

[6] = tested on: kale ‘Red Russian’; experiment: Yield, fresh weight of kale after insecticide, fungicide and PGRs (Example 4, Table 12); type: in vivo; details: 28 DA-A, Untreated Check 106.9
Procedure: as §1

[7] = 7 DA-A, rates g ai/ha: chlropyrifos 1120, chlorothalonil 2630, paclobutrazol 3.23, mepiquat-chloride 12.3, + NIS 0.25 % v/v
[8] = 7 DA-A, rates g ai/ha: chlropyrifos 3370, chlorothalonil 7900, paclobutrazol 9.7, mepiquat-chloride 37, + NIS 0.25 % v/v
[9] = 14 DA-A, rates g ai/ha: chlropyrifos 1120, chlorothalonil 2630, paclobutrazol 3.23, mepiquat-chloride 12.3, + NIS 0.25 % v/v
[10] = 14 DA-A, rates g ai/ha: chlropyrifos 3370, chlorothalonil 7900, paclobutrazol 9.7, mepiquat-chloride 37, + NIS 0.25 % v/v
[11] = 28 DA-A, rates g ai/ha: chlropyrifos 1120, chlorothalonil 2630, paclobutrazol 3.23, mepiquat-chloride 12.3, + NIS 0.25 % v/v
[12] = 28 DA-A, rates g ai/ha: chlropyrifos 3370, chlorothalonil 7900, paclobutrazol 9.7, mepiquat-chloride 37, + NIS 0.25 % v/v
[13] = 7 DA-A, rates g ai/ha: chlropyrifos 1120, chlorothalonil 2630, paclobutrazol 3.23, mepiquat-chloride 12.3, Isoxadifen 8, Napthalic anhydride 264, + NIS 0.25 % v/v
[14] = 7 DA-A, rates g ai/ha: chlropyrifos 3370, chlorothalonil 7900, paclobutrazol 9.7, mepiquat-chloride 37, Isoxadifen 16, Napthalic anhydride 527, + NIS 0.25 % v/v
[15] = 14 DA-A, rates g ai/ha: chlropyrifos 1120, chlorothalonil 2630, paclobutrazol 3.23, mepiquat-chloride 12.3, Isoxadifen 8, Napthalic anhydride 264, + NIS 0.25 % v/v
[16] = 14 DA-A, rates g ai/ha: chlropyrifos 3370, chlorothalonil 7900, paclobutrazol 9.7, mepiquat-chloride 37, Isoxadifen 16, Napthalic anhydride 527, + NIS 0.25 % v/v
[17] = 28 DA-A, rates g ai/ha: chlropyrifos 1120, chlorothalonil 2630, paclobutrazol 3.23, mepiquat-chloride 12.3, Isoxadifen 8, Napthalic anhydride 264, + NIS 0.25 % v/v
[18] = 28 DA-A, rates g ai/ha: chlropyrifos 3370, chlorothalonil 7900, paclobutrazol 9.7, mepiquat-chloride 37, Isoxadifen 16, Napthalic anhydride 527, + NIS 0.25 % v/v
[19] = first-listed rate g ai/ha: chlropyrifos ###, paclobutrazol 3.2, mepiquat-chloride 12, + NIS 0.3 % v/v
[20] = rates g ai/ha: chlropyrifos 1120, chlorothalonil 2630, paclobutrazol 3.23, mepiquat-chloride 12.3, + NIS 0.25 % v/v
[21] = rates g ai/ha: chlropyrifos 3370, chlorothalonil 7900, paclobutrazol 9.7, mepiquat-chloride 37, + NIS 0.25 % v/v
[22] = second-listed rate g ai/ha: chlropyrifos ###, paclobutrazol 9.7, mepiquat-chloride 37, + NIS 0.3 % v/v

## CCOP(=S)(OCC)Oc1nc(Cl)c(Cl)cc1Cl [chlropyrifos]
[1]; [7]
  Phytotoxicity Chlorosis: 1%
  Phytotoxicity General: 14%
  Phytotoxicity Stunting: 9%
[1]; [8]
  Phytotoxicity Chlorosis: 0%
  Phytotoxicity General: 13%
  Phytotoxicity Stunting: 6%
[1]; [9]
  Phytotoxicity Chlorosis: 15%
  Phytotoxicity General: 4%
  Phytotoxicity Stunting: 9%
[1]; [10]
  Phytotoxicity Chlorosis: 13%
  Phytotoxicity General: 5%
  Phytotoxicity Stunting: 10%
[1]; [11]
  Phytotoxicity Chlorosis: 6%
  Phytotoxicity General: 4%
  Phytotoxicity Stunting: 8%
[1]; [12]
  Phytotoxicity Chlorosis: 3%
  Phytotoxicity General: 3%
  Phytotoxicity Stunting: 6%
[2]; [13]
  Phytotoxicity Chlorosis: 8%
  Phytotoxicity General: 2%
  Phytotoxicity Stunting: 5%
[2]; [14]
  Phytotoxicity Chlorosis: 10%
  Phytotoxicity General: 2%
  Phytotoxicity Stunting: 13%
[2]; [15]
  Phytotoxicity Chlorosis: 3%
  Phytotoxicity General: 7%
  Phytotoxicity Stunting: 10%
[2]; [16]
  Phytotoxicity Chlorosis: 8%
  Phytotoxicity General: 2%
  Phytotoxicity Stunting: 10%
[2]; [17]
  Phytotoxicity Chlorosis: 5%
  Phytotoxicity General: 10%
  Phytotoxicity Stunting: 8%
[2]; [18]
  Phytotoxicity Chlorosis: 7%
  Phytotoxicity General: 2%
  Phytotoxicity Stunting: 12%
[3]; [19]
  Alanine, Percent Increase over the Untreated Check (on a % dry matter basis): −1 % check
  Aspartic acid, Percent Increase over the Untreated Check (on a % dry matter basis): 0 % check
  Cysteine, Percent Increase over the Untreated Check (on a % dry matter basis): 0 % check
  Glutamic acid, Percent Increase over the Untreated Check (on a % dry matter basis): 5 % check
  Glycine, Percent Increase over the Untreated Check (on a % dry matter basis): −4 % check
  Iso-leucine, Percent Increase over the Untreated Check (on a % dry matter basis): 0 % check
  Leucine, Percent Increase over the Untreated Check (on a % dry matter basis): 0 % check
  Lysine, Percent Increase over the Untreated Check (on a % dry matter basis): 6 % check
  Methionine, Percent Increase over the Untreated Check (on a % dry matter basis): 2 % check
  Proline, Percent Increase over the Untreated Check (on a % dry matter basis): −2 % check
  Threonine, Percent Increase over the Untreated Check (on a % dry matter basis): −2 % check
  Total Amino acids, Percent Increase over the Untreated Check (on a % dry matter basis): 1 % check
  Total Protein, Percent Increase over the Untreated Check (on a % dry matter basis): 3 % check
  Valine, Percent Increase over the Untreated Check (on a % dry matter basis): 1 % check
[3]; [20]
  ADF, Percent Increase Over the Untreated Check (on a % dry matter basis): 1 % check
  Calcium, Percent Increase Over the Untreated Check (on a % dry matter basis): 18 % check
  Copper, Percent Increase Over the Untreated Check (on a % dry matter basis): 50 % check
  Iron, Percent Increase Over the Untreated Check (on a % dry matter basis): 33 % check
  Magnesium, Percent Increase Over the Untreated Check (on a % dry matter basis): 11 % check
  Manganese, Percent Increase Over the Untreated Check (on a % dry matter basis): 39 % check
  NDF, Percent Increase Over the Untreated Check (on a % dry matter basis): −8 % check
  Phosphorous, Percent Increase Over the Untreated Check (on a % dry matter basis): 9 % check
  Potassium, Percent Increase Over the Untreated Check (on a % dry matter basis): 4 % check
  Sodium, Percent Increase Over the Untreated Check (on a % dry matter basis): 13 % check
  Zinc, Percent Increase Over the Untreated Check (on a % dry matter basis): 18 % check
[3]; [21]
  ADF, Percent Increase Over the Untreated Check (on a % dry matter basis): 9 % check
  Calcium, Percent Increase Over the Untreated Check (on a % dry matter basis): 0 % check
  Copper, Percent Increase Over the Untreated Check (on a % dry matter basis): 28 % check
  Iron, Percent Increase Over the Untreated Check (on a % dry matter basis): 3 % check
  Magnesium, Percent Increase Over the Untreated Check (on a % dry matter basis): 3 % check
  Manganese, Percent Increase Over the Untreated Check (on a % dry matter basis): 16 % check
  NDF, Percent Increase Over the Untreated Check (on a % dry matter basis): 1 % check
  Phosphorous, Percent Increase Over the Untreated Check (on a % dry matter basis): 7 % check
  Potassium, Percent Increase Over the Untreated Check (on a % dry matter basis): 1 % check
  Sodium, Percent Increase Over the Untreated Check (on a % dry matter basis): 45 % check
  Zinc, Percent Increase Over the Untreated Check (on a % dry matter basis): 10 % check
[3]; [22]
  Alanine, Percent Increase over the Untreated Check (on a % dry matter basis): 6 % check
  Aspartic acid, Percent Increase over the Untreated Check (on a % dry matter basis): 7 % check
  Cysteine, Percent Increase over the Untreated Check (on a % dry matter basis): 6 % check
  Glutamic acid, Percent Increase over the Untreated Check (on a % dry matter basis): 12 % check
  Glycine, Percent Increase over the Untreated Check (on a % dry matter basis): 3 % check
  Iso-leucine, Percent Increase over the Untreated Check (on a % dry matter basis): 6 % check
  Leucine, Percent Increase over the Untreated Check (on a % dry matter basis): 6 % check
  Lysine, Percent Increase over the Untreated Check (on a % dry matter basis): 11 % check
  Methionine, Percent Increase over the Untreated Check (on a % dry matter basis): 0 % check
  Proline, Percent Increase over the Untreated Check (on a % dry matter basis): 9 % check
  Threonine, Percent Increase over the Untreated Check (on a % dry matter basis): 4 % check
  Total Amino acids, Percent Increase over the Untreated Check (on a % dry matter basis): 7 % check
  Total Protein, Percent Increase over the Untreated Check (on a % dry matter basis): 5 % check
  Valine, Percent Increase over the Untreated Check (on a % dry matter basis): 7 % check
[4]
  ADF, Percent Increase Over the Untreated Check (on a % dry matter basis): −12 % check
  Calcium, Percent Increase Over the Untreated Check (on a % dry matter basis): 7 % check
  Copper, Percent Increase Over the Untreated Check (on a % dry matter basis): 8 % check
  Iron, Percent Increase Over the Untreated Check (on a % dry matter basis): 108 % check
  Magnesium, Percent Increase Over the Untreated Check (on a % dry matter basis): 12 % check
  Manganese, Percent Increase Over the Untreated Check (on a % dry matter basis): 28 % check
  NDF, Percent Increase Over the Untreated Check (on a % dry matter basis): −8 % check
  Phosphorous, Percent Increase Over the Untreated Check (on a % dry matter basis): 11 % check
  Potassium, Percent Increase Over the Untreated Check (on a % dry matter basis): 12 % check
  Protein, Percent Increase Over the Untreated Check (on a % dry matter basis): 20 % check
  Sodium, Percent Increase Over the Untreated Check (on a % dry matter basis): 83 % check
  Soluble protein, Percent Increase Over the Untreated Check (on a % dry matter basis): 196 % check
  Zinc, Percent Increase Over the Untreated Check (on a % dry matter basis): 33 % check
[5]; rates g ai/ha: chlropyrifos 1120, chlorothalonil 2630, paclobutrazol 3.23, mepiquat-chloride 12.3, Isoxadifen 8, Napthalic anhydride 264, + NIS 0.25 % v/v
  Yield Fresh weight: 24.6 grams
[5]; rates g ai/ha: chlropyrifos 3370, chlorothalonil 7900, paclobutrazol 9.7, mepiquat-chloride 37, Isoxadifen 16, Napthalic anhydride 527, + NIS 0.25 % v/v
  Yield Fresh weight: 32.9 grams
[6]; [20]
  Yield Fresh weight: 108.2 grams
[6]; [21]
  Yield Fresh weight: 110.1 grams
